Test results: paper PMC5877539, “Biochemical and MALDI-TOF Mass Spectrometric Characterization of a Novel Native and Recombinant Cystine Knot Miniprotein from Solanum tuberosum subsp. andigenum cv. Churqueña” (International Journal of Molecular Sciences, 2018)
Non-standard residues stand in square brackets, D forms with d. No end group written: not given here. pGlu = O=C1CC[C@@H](C(=O)O)N1

Experiments:
bovine CPA [1] = assay: Affinity chromatography on CPA-glyoxyl-agarose (binding to immobilized CPA), MALDI-TOF read-out; settings: heat-treated extract (100 °C, 60 min); 0.1 M Tris-HCl pH 7.2, 0.2 M NaCl
Description: (§1) A 50 mL aliquot of the clarified crude extract (with a protein concentration of (200 μg·mL^−1) was loaded onto a 2.0 mL bovine CPA-glyoxyl-agarose column prepared in house. The affinity resin was prepared in house as described. Before the addition of the crude extract, the affinity resin was previously equilibrated with 10 column volumes (cv) 0.1 M Tris-HCl buffer (pH 7.2) containing 0.2 M NaCl. Then, the column was washed with 5 cv of equilibration buffer. The retained proteins were eluted with two different buffers: (1) HCl solution with pH = 5.0 (2 cv) and (2) […] solution with pH = 3.0 (2 cv). The eluted fractions were adjusted immediately to pH 7.0 by adding NaOH. All the fractions that presented CPA inhibitory activity were pooled and stored at −80 °C until analysis.
(§2) For MALDI-TOF mass spectrometric analysis, samples from the different purification steps, as well as from the clarified crude extract were mixed with an equal volume of α-cyano-4-hydroxycinnamic acid (hcca) matrix solution. Previously, the samples were desalted by dialysis in 0.022 μm filters. The matrix-sample mixture was spotted onto MT 384 target plate polished steel T F from Bruker Daltonics, and the spots were evaporated to dryness at room temperature. […] The resultant tryptic peptides were dissolved in 10 μL of 0.1% CF3CO2H (v/v) an analyzed by MALDI-TOF in the presence of hcca matrix. […]

immobilized CPA [2] = assay: C-terminal cleavage by immobilized CPA; parameters: species or system bovine; settings: affinity chromatography eluate, MALDI-TOF
Description: as §1, §2

immobilized CPA [3] = settings: after binding of the inhibitor to immobilized CPA; cited from earlier work
Source text: For further characterization, the initial heat-treated crude extract, the flow-through (fraction containing the non-retained peptides and proteins), and the elution from the affinity chromatography containing the final purified protein were subjected to MALDI-TOF mass spectrometry. A detailed analysis of the peaks present in the mass spectra for the initial heat-treat ...

[4] = ref 34 (Wang and co-workers, 2006); cited from earlier work
Source text: (§3) A number of CKMPs function as potent protease peptide inhibitors (PPIs). Among them, the potato carboxypeptidase inhibitor (PCI) was the first CKMPs to be discovered. […] The first crystal structure of this 39 amino acid plant protease inhibitor was reported in 1980 by Rees and Liscomb. After almost 40 years of intense research in the field of proteases, only a small number of metallocarboxypept ...

adenocarcinoma cell = settings: in vitro, acting as epidermal growth factor (EGF) antagonist; cited from earlier work
Source text: as §3

[5] = test system: metallocarboxypeptidases (MCPs); settings: cited from earlier work
Source text: as §3

[6] = test system: pancreatic carboxypeptidases A and B (CPA and CPB, respectively); settings: in vitro, by pancreatic carboxypeptidases A and B; cited from earlier work
Source text: as §3

[7] = cited from earlier work
Source text: To date, a large number of CKMPs have been identified and isolated from natural sources (i.e., from arthropods, vertebrates, mollusks, fungi, plants, and so on). These molecules belong to more than 34 protein families and are involved in diverse biological functions. In animals, CKMPs are secreted peptides that function as extracellular signaling molecules involved in the regulation of important cellular functions such as cell growth or cell development. In plants, CKMPs are often involved in defense against external pathogens. Typically, the latter group functions as prote ...

bovine CPA [8] = assay: CPA inhibitory activity after heat treatment (thermal stability); format: physicochemical; settings: crude extract, 100 °C for 60 min; Bradford and CPA inhibition
Description: The bCPA inhibitory activity of the crude extract and the heat-treated samples was determined similarly as described above for the determination of the IC50 values. However, in this case a unique concentration of the sample was tested. bCPA inhibitory activity (%) was calculated by using the following equation:(2) Y=(ΔAbs340nm/Δt(min))potato extract/(ΔAbs340nm/Δt(min))control×100
(§4) Aliquots with 1.0 mL of the clarified crude extract (see Section 3.2) where incubated at 60, 70, 85 or 100 °C for 60 min. After incubation the samples were centrifuged at 14,500× g for 90 min at 4 °C to eliminate all thermally denatured proteins. Afterwards, the total protein content and the inhibitory activity of the non-treated crude extract and heat-treated samples were determined.

[9] = MALDI-TOF MS of heat-treated samples (thermal stability); format: physicochemical; settings: crude extract heat-treated 60 min; MALDI-TOF linear positive mode
Description: as §4
For MALDI-TOF mass spectrometric analysis, samples from the different purification steps, as well as from the clarified crude extract were mixed with an equal volume of α-cyano-4-hydroxycinnamic acid (hcca) matrix solution. Previously, the samples were desalted by dialysis in 0.022 μm filters. The matrix-sample mixture was spotted onto MT 384 target plate polished steel T F from Bruker Daltonics, and the spots were evaporated to dryness at room temperature. Mass spectra were acquired on a Bruker Daltonics Ultraflextreme MALDI-TOF mass spectrometer (Bruker Daltonics, Billerica, MA, USA) operating in a linear positive mode. PMF analysis was performed for the identification of nchuPCI. In brief, an in situ tryptic digestion of the tris-tricine-SDS-PAGE electrophoresis bands as performed by following a well described protocol. The resultant tryptic peptides were dissolved in 10 μL of 0.1% CF3CO2H (v/v) an analyzed by MALDI-TOF in the presence of hcca matrix. […]

[10] = target: bovine carboxypeptidases A (bCPA); assay: Inhibition kinetic constant (Ki), bCPA, pre-steady-state tight-binding (Morrison) assay; format: biochemical; settings: against bCPA
Description: (§5) The inhibitory properties of the purified rchuPCI against bCPA and pCPB were determined and compared with a recombinant version of the canonical PCI. The Ki values were evaluated following a pre-steady-state based protocol, according to the Morrison model for tight-binding inhibitors. […] When compared to the canonical PCI, the Ki values obtained for rchuPCI against bCPA and pCPB were about 2-fold higher than the Ki values obtained for recombinant PCI (rPCI).
(§6) The method for tight binding inhibitors was used for the Ki determination. Inhibitory assays were performed at 25 °C under equilibrium conditions ([E0]/Ki ≤ 10) with a fixed concentration of bCPA or pCPB and substrate (0.1 mM N-(4-methoxyphenylazoformyl)-Phe-OH or 0.1 mM N-(4-methoxyphenylazoformyl)-Arg-OH, respectively) in Tris-HCl buffer (pH 7.5) containing 0.2 M NaCl. Samples were pre-incubated for 15 min at RT before the addition of substrate. Then, the decrease in absorbance was measured at 340 nm in a Victor3 (Perkin Elmer, Boston, MA, USA) plate reader. Ki values were calculated by direct fitting of the fractional activities (vi/v0) to the Morrison equation and assuming a competitive inhibition modality (Equations (3) and (4)). (3) vi/v0=1−([E]T+[I]T+Kiapp)−([E]T+[I]T+Kiapp)^2−4[E]T[I]T/2[E]T (4) Ki=Kiapp/([S0/KM])+1 […]

[11] = target: porcine carboxypeptidases B (pCPB); assay: Inhibition kinetic constant (Ki), pCPB, pre-steady-state tight-binding (Morrison) assay; format: biochemical; settings: against pCPB
Description: as §5, §6

calcium channel = settings: cited from earlier work
[12] = target: T1, Carboxypeptidase A from bovine pancreas (bovine, UniProt P00730 111-419); assay: enzyme inhibition kinetics (Morrison equation for tight-binding inhibitors); 25 °C, equilibrium conditions ([E0]/Ki <= 10), fixed bCPA or pCPB, 0.1 mM N-(4-methoxyphenylazoformyl)-Phe-OH (bCPA) or -Arg-OH (pCPB), Tris-HCl pH 7.5, 0.2 M NaCl; pre-incubated 15 min at RT; absorbance at 340 nm; competitive inhibition assumed; settings: both partners purified
T1 construct: carboxypeptidase A from bovine pancreas; Free in solution for the Ki determinations; also called bCPA; bovine CPA; source: bought: Sigma-Aldrich (from bovine pancreas)
T1 sequence (looked up): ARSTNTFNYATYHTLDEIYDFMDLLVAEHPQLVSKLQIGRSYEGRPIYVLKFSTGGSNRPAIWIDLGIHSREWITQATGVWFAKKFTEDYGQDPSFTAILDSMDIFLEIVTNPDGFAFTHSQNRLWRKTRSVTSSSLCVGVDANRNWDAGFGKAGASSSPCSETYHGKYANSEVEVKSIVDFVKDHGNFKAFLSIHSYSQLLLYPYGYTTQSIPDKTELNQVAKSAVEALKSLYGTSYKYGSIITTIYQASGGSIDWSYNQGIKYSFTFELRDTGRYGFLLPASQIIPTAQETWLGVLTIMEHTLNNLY

[13] = target: T2, Carboxypeptidase B from porcine pancreas (porcine, UniProt P09955 111-416); assay: as above; settings: both partners purified
T2 construct: carboxypeptidase B from porcine pancreas; also called pCPB; porcine CPB; source: bought: Sigma-Aldrich (from porcine pancreas)
T2 sequence (looked up): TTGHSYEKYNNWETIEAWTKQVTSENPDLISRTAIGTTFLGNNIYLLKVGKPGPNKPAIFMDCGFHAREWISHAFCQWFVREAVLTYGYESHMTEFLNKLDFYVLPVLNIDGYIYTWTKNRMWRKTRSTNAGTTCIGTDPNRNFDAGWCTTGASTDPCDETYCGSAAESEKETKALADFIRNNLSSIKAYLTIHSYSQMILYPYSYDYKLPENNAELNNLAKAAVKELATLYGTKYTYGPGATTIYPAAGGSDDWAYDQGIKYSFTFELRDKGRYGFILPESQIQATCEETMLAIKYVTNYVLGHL

[14] = compared to recombinant PCI (rPCI)

[pGlu]RDPDPICNKPCKTHDDCSGAWFCQACWNSARTCGPYVG (disulfide (positions not given here)) [IIIa, full-length chuPCI post-translationally modified with an N-terminal pyroglutamic acid]
Retention by immobilized CPA (MALDI-TOF of flow-through vs initial extract) (bovine CPA [1]): clear fading of the molecular ion intensities
C-terminal cleavage by immobilized CPA (mass shift) (immobilized CPA [2]): loss of 57 Da

PCI: potato carboxypeptidase inhibitor, 39 amino acid plant protease inhibitor from Solanum tuberosum (QQHADPICNKPCKTHDDCSGAWFCQACWNSARTCGPYVG)
C-terminal cleavage by immobilized CPA (immobilized CPA [3]): a C-terminal glycine residue is usually cleaved by the immobilized CPA
Antithrombotic action [4]: can act as an antithrombotic drug
Inhibition of adenocarcinoma cell growth (adenocarcinoma cell): inhibit in vitro adenocarcinoma cell growth
Inhibition of metallocarboxypeptidases [5]: inhibits different enzymes within the family of metallocarboxypeptidases
Blocking of C-terminal cleavage (and consequent inactivation) of human EGF [6]: blocks the C-terminal cleavage

-RDPDPICNKPCKTHDDCSGAWFCQACWNSARTCGPYVG (disulfide) [IIa, chuPCI lacking the N-terminal amino acid]
Retention by immobilized CPA (MALDI-TOF of flow-through vs initial extract) (bovine CPA [1]): clear fading of the molecular ion intensities
C-terminal cleavage by immobilized CPA (mass shift) (immobilized CPA [2]): loss of 57 Da

kalata B1: CKMP isolated from plants (GLPVCGETCVGGTCNTPGCTCSWPVCTRN; ends and bridges not checked; also: cystine-knot disulfides, pairing not given here; UniProt P56254 89-117, looked up)
Antibacterial and/or antifungal activities [7]: antibacterial and/or antifungal activities

[pGlu]RDPDPICNKPCKTHDDCSGAWFCQACWNSARTCGPYVG (disulfide (positions not given here)) [native chuPCI, Churqueña]
Temperature stability of CPA inhibitory activity (bovine CPA [8]): high temperature stability, even after thermal treatment at 100 °C for 60 min
Heat resistance of the 4309 Da peak/miniprotein [9]: heat-resistant molecule

QRDPDPICNKPCKTHDDCSGAWFCQACWNSARTCGPYVG (disulfide (positions not given here)) [rchuPCI, recombinant product of mature chuPCI (39 amino acids) expressed in E. coli BL21 (DE3)]
All Ki values determined (range in words) [10]: nanomolar range
Ki values obtained for rchuPCI compared with rPCI (fold higher) [10, 14]: about 2 fold
All Ki values determined (range in words) [11]: nanomolar range
Ki values obtained for rchuPCI compared with rPCI (fold higher) [11, 14]: about 2 fold

ω-conotoxin MVIIa
Calcium channel block (calcium channel): calcium channel blocker

QQHADPICNKPCKTHDDCSGAWFCQACWNSARTCGPYVG (natural protein, Solanum tuberosum subsp. tuberosum, UniProt P01075 1-39, looked up, also called canonical PCI) [recombinant canonical potato carboxypeptidase inhibitor (PCI)]
Ki [12]: 4.3 ± 0.46 nM
Ki [13]: 10.7 ± 1.17 nM

B1: recombinant chuPCI (cystine-knot metallocarboxypeptidase inhibitor from Solanum tuberosum subsp. andigenum cv. Churqueña) (natural protein)
chain: QRDPDPICNKPCKTHDDCSGAWFCQACWNSARTCGPYVG
modifications: also: N-terminal Gln partly cyclised to pyroglutamate
notes: mature chuPCI (39 amino acids) of the chuPCI precursor, S. tuberosum subsp. andigenum cv; Churqueña; Cloned in pIN-III-OmpA3 with the OmpA3 signal peptide at the N-terminus for secretion; The mass of the purified protein (4326.3 Da) fits the 39 residues without the signal peptide; Three disulfide bonds (Cys8-Cys24, Cys12-Cys27, Cys18-Cys34); also called rchuPCI; recombinant churqueña PCI; source: …
Ki [12]: 10.8 ± 1.55 nM
Ki [13]: 19.8 ± 1.82 nM
